Laboratory results: patent US8293784B2, “α-amino acid derivatives for improving solubility” (Merck Patent GmbH, priority 2007, dated 2012)
Values after ≈ are worked out from the molar mass of the structure shown. Like-named read-outs stand apart in the source and are kept apart here.

Legend:
[1] = Visual assessment of the increase in solubility due to ectoine (clear vs cloudy solution); type: physicochemical; details: active compound incorporated at 1% (tiliroside) or 1.5% (5,7-dihydroxy-2-methylchromone)
Experimental: Firstly, 4% ectoine solutions are prepared in water and in a water/ethanol mixture (3:1). The active compound to be dissolved is subsequently incorporated into the two ectoine solutions in an amount of 1% and 1.5% respectively. The respective ectoine-free batches serve as comparison.

[2] = Solubility of PBSA in aqueous solubiliser solutions, dissolved fraction determined by HPLC; type: physicochemical; details: thermodynamic from solid, filtered
Experimental: Firstly, 4% aqueous solutions of ectoine, creatinine and pyrrolidonecarboxylic acid are prepared. The active compound PBSA is subsequently dispersed in the solution in excess. The pH of the suspension is adjusted to 4.6. Undissolved active compound is filtered off after stirring for 1 hour. The dissolved active-compound fraction is determined by high-performance liquid chromatography. The experiment without solubiliser serves as comparison. In the case of dissolution of PBSA in aqueous creatinine solution, the solubility is additionally determined at pH 5.7, i.e. in this case the pH is not restored to 4.6.

[3] = 4% of ectoine in ethanol/water 3:1
[4] = Ethanol/water 3:1, no ectoine (comparison)

Cc1cc(=O)c2c(O)cc(O)cc2o1 [5,7-Dihydroxy-2-methyl-chromone, 5,7-dihydroxy-2-methylchromone]
Appearance of solution (visual solubility assessment) [1, 3]: clear solution | Appearance of solution (visual solubility assessment) [1, 4]: cloudy solution

O=S(=O)(O)c1ccc2[nH]c(-c3ccccc3)nc2c1 [PBSA, 2-phenylbenzimidazole-5-sulfonic acid]
solubility at 1 h ([2]; 4% aqueous creatinine solution, pH 4.6, aqueous with cosolvent or surfactant or cyclodextrin, pH of the dispersion set to 4.6, stirred 1 hour, read-out: Solubility of PBSA in water comprising 4% of creatinine): 0.94 mg/mL (≈ 3430 µM) | solubility at 1 h ([2]; 4% aqueous creatinine solution, pH 5.7, aqueous with cosolvent or surfactant or cyclodextrin, pH of the dispersion 5.7 (pH not restored to 4.6), stirred 1 hour, read-out: Solubility of PBSA in water comprising 4% of creatinine): 8.5 mg/mL (≈ 31000 µM) | solubility at 1 h ([2]; 4% aqueous ectoine solution, pH 4.6, aqueous with cosolvent or surfactant or cyclodextrin, pH of the dispersion set to 4.6, stirred 1 hour, read-out: Solubility of PBSA in water comprising 4% of ectoine): 0.6 mg/mL (≈ 2190 µM) | solubility at 1 h ([2]; 4% aqueous pyrrolidonecarboxylic acid solution, pH 4.6, aqueous with cosolvent or surfactant or cyclodextrin, pH of the dispersion set to 4.6, stirred 1 hour, read-out: Solubility of PBSA in water comprising 4% of pyrrolidonecarboxylic acid): 0.34 mg/mL (≈ 1240 µM) | solubility at 1 h ([2]; water without solubiliser, pH 4.6, aqueous buffer, no solubiliser, pH of the dispersion set to 4.6, stirred 1 hour, read-out: Solubility of PBSA in water): 0.34 mg/mL (≈ 1240 µM)

O=C(/C=C/c1ccc(O)cc1)OC[C@H]1O[C@@H](Oc2c(-c3ccc(O)cc3)oc3cc(O)cc(O)c3c2=O)[C@H](O)[C@@H](O)[C@@H]1O [Tiliroside, tiliroside]
Appearance of solution (visual solubility assessment) [1, 3]: clear solution | Appearance of solution (visual solubility assessment) [1, 4]: cloudy solution
